Assay results from ChEMBL document CHEMBL1821593, “Synthesis and α-Glucosidase II inhibitory activity of valienamine pseudodisaccharides relevant to N-glycan biosynthesis” (Bioorg Med Chem Lett, 2011).
Blank lines part the entries; values can stand above or below the compound they belong to. The source made the active and inactive calls. No cut-off for these calls is given here.

Legend:
[1] = Inhibition of rat liver Alpha-glucosidase II using Glc1Man5GlcNAc1 substrate after 90 mins by NP-HPLC analysis
HL-60 [2] = assay: Inhibition of Alpha-glucosidase II in human HL60 cells assessed as Glc1Man4GlcNAc1 formation using 2-Anthranilic acid labelled NB-DNJ substrate by HPLC analysis; type: cell-based
[3] = Inhibition of rat liver Alpha-glucosidase II using Glc2Man7GlcNAc2 substrate after 2 hrs by NP-HPLC analysis
Rattus norvegicus [4] = species on record: Rattus norvegicus; assay: (§1) Inhibition of rat liver Alpha-glucosidase I using Glc3Man9GlcNAc2 substrate
Rattus norvegicus [5] = species on record: Rattus norvegicus; assay: (§2) Inhibition of rat liver Alpha-glucosidase II using p-nitrophenyl alpha D-glucopyranoside substrate
Rattus norvegicus [6] = species on record: Rattus norvegicus; assay: Inhibition of rat liver Alpha-glucosidase II upto 500 uM using Glc2Man7GlcNAc2 substrate after 2 hrs by NP-HPLC analysis
HL-60 [7] = assay: Inhibition of Alpha-glucosidase II in human HL60 cells using 2-Anthranilic acid labelled NB-DNJ substrate after 24 hrs by HPLC analysis relative to control; type: cell-based
Rattus norvegicus [8] = species on record: Rattus norvegicus; assay: Inhibition of rat liver Alpha-glucosidase II upto 500 uM using Glc1Man5GlcNAc1 substrate after 90 mins by NP-HPLC analysis
[9] = as §1
[10] = as §2
HL-60 [11] = assay: Inhibition of Alpha-glucosidase I in human HL60 cells using Glc3Man9GlcNAc2 substrate after 24 hrs by HPLC analysis; type: cell-based
[12] = Inhibition of rat liver Alpha-glucosidase II

- IC50 [1]: 143 µM
- IC50 [3]: 72 µM
Structure (SMILES): CO[C@H]1O[C@H](CO)[C@@H](O)[C@H](N[C@H]2C=C(CO)[C@@H](O)[C@H](O)[C@H]2O)[C@H]1O
- inhibition (HL-60 [2]): Active

Structure (SMILES): CO[C@H]1O[C@H](CO)[C@@H](O)[C@H](N[C@H]2[C@H](O)[C@H](O)[C@@H](O)[C@H](O)[C@H]2O)[C@H]1O
- inhibition (Rattus norvegicus [4]): inactive
- inhibition (Rattus norvegicus [5]): inactive

- IC50 [1]: 236 µM
- inhibition (Rattus norvegicus [6]): inactive
Structure (SMILES): CO[C@H]1O[C@H](CO)[C@@H](O)[C@H](N[C@H]2C=C(CO)[C@@H](O)[C@H](O)[C@H]2O)[C@@H]1O
- inhibition (HL-60 [2]): Active

- inhibition (Rattus norvegicus [8]): inactive
- inhibition (Rattus norvegicus [6]): inactive
Structure (SMILES): CO[C@H]1O[C@H](CN[C@H]2C=C(CO)[C@@H](O)[C@H](O)[C@H]2O)[C@@H](O)[C@H](O)[C@H]1O
- inhibition (HL-60 [7]): inactive

Structure (SMILES): N[C@H]1C=C(CO)[C@@H](O)[C@H](O)[C@H]1O [VALIENAMINE]
- IC50 [9]: 780 µM
- IC50 [10]: 1000 µM
- inhibition (HL-60 [11]): inactive

Structure (SMILES): CO[C@H]1O[C@H](CO)[C@@H](O)[C@H](O)[C@H]1N[C@H]1C=C(CO)[C@@H](O)[C@H](O)[C@H]1O
- inhibition (Rattus norvegicus [4]): inactive
- inhibition (Rattus norvegicus [5]): inactive

- IC50 [12]: 4.6 µM
Structure (SMILES): CCCCN1C[C@H](O)[C@@H](O)[C@H](O)[C@H]1CO

- inhibition (Rattus norvegicus [8]): inactive
- inhibition (Rattus norvegicus [6]): inactive
Structure (SMILES): CO[C@H]1O[C@H](CN[C@@H]2C=C(CO)[C@@H](O)[C@H](O)[C@H]2O)[C@@H](O)[C@H](O)[C@H]1O
- inhibition (HL-60 [7]): inactive
